Measurements taken from patent publication US8546416B2, “3-spirocyclic piperidine derivatives as ghrelin receptor agonists” (Novartis AG, priority 2011, dated 2013).

Assays:
[1] = target: T1, human recombinant ghrelin receptor (GHS-R1a) (Homo sapiens, UniProt Q92847); test: hGHS-R1a cAMP assay (HTRF cAMP dynamic 2 kit, CHO-hGHS-R1a cells); type: cell-based; conditions: 60 min incubation, dose response up to 30 μM
T1 construct: host or cells: CHO-K1
Experimental: (§1) Chinese hamster ovary (CHO-K1) cells expressing human recombinant ghrelin receptor (GHS-R1a) were purchased from Euroscreen (ES-410-C) and propagated in UltraCHO medium containing glutamine and supplemented with 1% heat inactivated foetal calf serum (FCS), 100 U/ml penicillin, 100 mg/l streptomycin and 0.8 g/l geneticin. Cells were sub-cultured twice a week with a 1:10 dilution. For passaging, cells were washed with 1×DPBS without calcium and magnesium, trypsinised for 10 min with 0.05% Trypsin/EDTA and resuspended in cell culture medium.
The Homogeneous Time-Resolved Fluorescence (HTRF) cAMP dynamic 2 kit (Cisbio International, France) was used as follows. CHO-hGHS-R1a or CHO-rGHS-R1a cells were seeded in a volume of 25 μl culture media at 10,000 cells/well (400,000 cells/ml) in Greiner white 384-well high volume plates and incubated overnight (18-24 h) at 37° C./5% CO2. Then, media was removed and 6 μl assay buffer [HBSS, 10 mM Hepes, 0.2% (w/v) BSA, 1.7 mM IBMX, (pH7.4)] were added to the wells. To generate a dose response up to 30 μM, 10 mM compound stocks in 100% (v/v) DMSO were firstly diluted in 50% (v/v) DMSO followed by a further dilution into assay buffer. Then, 4 μl of 2.5× compound (dose response as 9 point log serial dilution in assay buffer from 30 μM as maximum concentration) were added to each well achieving a final DMSO assay concentration of 0.8% (v/v). 0.1 μM forskolin was added as positive control. After 30 min (rGHS-R1a cell line) or 60 min (hGHS-R1a cell line) incubation at 37° C./5% CO2, 5 μl of cAMP-d2 and 5 μl of anti-cAMP antibody-cryptate, (both made in lysis buffer), were added to the plate followed by 1 h incubation at RT. During this time, cAMP produced by the cells competed with cAMP-d2 for the anti-cAMP antibody-cryptate molecule. Then, the plate was read on the Pherastar instrument (BMG, Germany) at two different emission wavelengths (620 and 650 nm). Increasing levels of endogenous cAMP produced by cells could be followed by a decrease of FRET fluorescent signal and viceversa. Values represented by a change in arbitrary fluorescence ratios (665/620) were converted into cAMP concentrations by using a standard curve, the reagents for which were supplied with the kit. EC50 values of agonists were calculated using the nonlinear logistic function of the Prism 5 software (GraphPad, USA). Emax were expressed as relative values of the ghrelin response, which was defined as 100%.

[2] = target: T1, human recombinant ghrelin receptor (GHS-R1a); test: hGHS-R1a Ca assay (Fluo-4 calcium assay in CHO-K1 cells); type: cell-based; conditions: CHO-K1 cells expressing human GHS-R1a; agonist dose response up to 30 μM
Experimental: as §1
Cells were diluted to achieve 1×10^6 cells/ml, seeded in 384-well black clear bottom CellBind plates at 25000 cells/well (25 ul) and incubated overnight at 37° C./5% CO2 Cells were expected to be 85-90% confluent on the day of assay (checked under the microscope) to ensure a high quality assay. Media was manually removed and 40 μl of loading solution containing probenecid and Fluo-4 no wash dye (a calcium indicator, Invitrogen F36206) were added to each well. After 30 min at 37° C. followed by another 30 min at RT, cpds were added to the wells. To generate a dose response up to 30 μM, 10 mM compound stocks in 100% (v/v) DMSO were firstly diluted in 50% (v/v) DMSO. Then, serial dilutions aimed at a full logarithmic dose responses (8 point) were performed in assay buffer [1×HBSS, 20 mM Hepes, 0.1% (w/v) BSA] to give 2.5% (v/v) DMSO and 5× final compound concentrations. The final assay DMSO concentration was 0.5% (v/v). After loading the cells with Fluo-4 containing solution, plates were read on a CellLux instrument (Perkin Elmer). A protocol set up to add 10 μl of 5× compound and to read the plate for 60 sec after adding the compound at 17th sec was used. Fluorescence excitation took place at 494 nm and emission at 516 nm. EC50 values of agonists were calculated by fitting the percent stimulation over background [(Max−Min)/Min] using the nonlinear logistic function of the Prism 5 software (GraphPad, USA).

T1 sequence (Q92847 whole entry): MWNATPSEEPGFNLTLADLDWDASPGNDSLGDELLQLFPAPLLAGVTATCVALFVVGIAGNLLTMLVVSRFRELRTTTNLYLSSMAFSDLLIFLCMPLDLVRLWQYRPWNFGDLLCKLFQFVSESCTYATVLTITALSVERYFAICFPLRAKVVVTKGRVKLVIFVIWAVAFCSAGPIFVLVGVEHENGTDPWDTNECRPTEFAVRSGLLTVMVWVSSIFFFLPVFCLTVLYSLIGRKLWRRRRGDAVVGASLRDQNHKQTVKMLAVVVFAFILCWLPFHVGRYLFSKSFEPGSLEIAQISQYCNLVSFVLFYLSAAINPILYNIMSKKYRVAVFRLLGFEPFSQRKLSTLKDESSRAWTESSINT

CC(C)(C)CN1CC(c2ccccc2)C2(CCCN(C(=O)[C@@H](COCc3ccccc3)NC(=O)C(C)(C)N)C2)C1=O (stereo partly drawn) [Example 1.75, 2-amino-N-((2R)-3-(benzyloxy)-1-(2-neopentyl-1-oxo-4-phenyl-2,7-diazaspiro[4.5]decan-7-yl)-1-oxopropan-2-yl)-2-methylpropanamide]
EC50 [1]: 0.302 µM
EC50 [2]: 0.0036 µM

CN1CC(c2ccc(F)cc2)C2(CCCN(C(=O)[C@@H](Cc3c[nH]c4ccccc34)NC(=O)C(C)(C)N)C2)C1=O (single isomer, unassigned) [Example 1.11]
EC50 [1]: 0.023 µM
EC50 [2]: 0.0003 µM

CN(C)C(=O)CN1CC(c2ccccc2)C2(CCCN(C(=O)[C@@H](COCc3ccccc3)NC(=O)C(C)(C)N)C2)C1=O (single isomer, unassigned) [Example 1.16]
EC50 [1]: 0.039 µM
EC50 [2]: 0.0005 µM

Cc1ccc(COC[C@@H](NC(=O)C(C)(C)N)C(=O)N2CCCC3(C2)C(=O)N(C)CC3c2ccccc2)cc1 (single isomer, unassigned) [Example 1.55]
EC50 [1]: 0.072 µM
EC50 [2]: 0.00013 µM

Cc1ccc(COC[C@@H](NC(=O)C(C)(C)N)C(=O)N2CCCC3(C2)C(=O)N(C)CC3c2ccc(F)cc2)cc1 (single isomer, unassigned) [Example 1.29]
EC50 [1]: 0.049 µM
EC50 [2]: 0.00035 µM

CC(C)(N)C(=O)N[C@H](COCc1ccccc1)C(=O)N1CCCC2(C1)C(=O)NCC2c1ccccc1 (single isomer, unassigned) [Example 1.4]
EC50 [1]: 0.051 µM
EC50 [2]: 0.0002 µM

Cc1ccc(COC[C@@H](NC(=O)C(C)(C)N)C(=O)N2CCCC3(C2)C(=O)N(C)CC3c2ccc(F)cc2)cc1 (stereo partly drawn) [Example 1.72, 2-amino-N-((2R)-1-(4-(4-fluorophenyl)-2-methyl-1-oxo-2,7-diazaspiro[4.5]decan-7-yl)-3-((4-methylbenzyl)oxy)-1-oxopropan-2-yl)-2-methylpropanamide]
EC50 [1]: 2.56 µM
EC50 [2]: 0.005 µM

CN1CC(c2ccccc2)C2(CCCN(C(=O)[C@@H](COCC3CCCCC3)NC(=O)C(C)(C)N)C2)C1=O (single isomer, unassigned) [Example 1.60]
EC50 [1]: 0.047 µM
EC50 [2]: 0.0003 µM

CCN1CC(c2ccccc2)C2(CCCN(C(=O)[C@@H](COCc3ccccc3)NC(=O)C(C)(C)N)C2)C1=O (single isomer, unassigned) [Example 1.25]
EC50 [1]: 0.043 µM
EC50 [2]: 0.0003 µM

Cc1ccccc1C1CN(C)C(=O)C12CCCN(C(=O)[C@@H](COCc1ccccc1)NC(=O)C(C)(C)N)C2 (single isomer, unassigned) [Example 1.51]
EC50 [1]: 0.067 µM
EC50 [2]: 0.0002 µM

C[C@H](OCc1ccccc1)[C@@H](NC(=O)C(C)(C)N)C(=O)N1CCCC2(C1)C(=O)N(C)CC2c1ccccc1 (single isomer, unassigned) [Example 1.34]
EC50 [1]: 0.184 µM
EC50 [2]: 0.0005 µM

CN1CC(c2ccccc2)C2(CCCN(C(=O)[C@@H](COCc3ccc(F)cc3)NC(=O)C(C)(C)N)C2)C1=O (single isomer, unassigned) [Example 7.0, 2-Amino-N-[(R)-1-(4-fluoro-benzyloxymethyl)-2-(4S,5R)-2-methyl-1-oxo-4-phenyl-2,7-diaza-spiro[4.5]dec-7-yl)-2-oxo-ethyl]-2-methyl-propionamide or 2-Amino-N-[(R)-1-(4-fluoro-benzyloxymethyl)-2-(4R,5S)-2-methyl-1-oxo-4-phenyl-2,7-diaza-spiro[4.5]dec-7-yl)-2-oxo-ethyl]-2-methyl-propionamide]
EC50 [1]: 0.138 µM
EC50 [2]: 0.00017 µM

CC(C)(C)CN1CC(c2ccccc2)C2(CCCN(C(=O)[C@@H](COCc3ccccc3)NC(=O)C(C)(C)N)C2)C1=O (single isomer, unassigned) [Example 1.40]
EC50 [1]: 0.034 µM
EC50 [2]: 0.0007 µM

CN1CC(c2ccccc2)C2(CCCN(C(=O)[C@@H](CCCc3ccccc3)NC(=O)C(C)(C)N)C2)C1=O (single isomer, unassigned) [Example 1.32]
EC50 [1]: 0.011 µM
EC50 [2]: 0.0003 µM

Cc1ccc(C2CN(C)C(=O)C23CCCN(C(=O)[C@@H](COCc2ccccc2)NC(=O)C(C)(C)N)C3)cc1 (single isomer, unassigned) [Example 1.53]
EC50 [1]: 0.036 µM
EC50 [2]: 0.00011 µM

CN1CC(c2ccccc2)C2(CCCN(C(=O)[C@@H](CCc3ccccc3)NC(=O)C(C)(C)N)C2)C1=O (single isomer, unassigned) [Example 1.28]
EC50 [1]: 0.141 µM
EC50 [2]: 0.00065 µM

COc1ccc(COC[C@@H](NC(=O)C(C)(C)N)C(=O)N2CCCC3(C2)C(=O)N(C)CC3c2ccccc2)cc1 (single isomer, unassigned) [Example 6.0(ii), 2-Amino-N-[(R)-1-(4-methoxy-benzyloxymethyl)-2-((4S,5R)-2-methyl-1-oxo-4-phenyl-2,7-diaza-spiro[4.5]dec-7-yl)-2-oxo-ethyl]-2-methyl-propionamide or 2-Amino-N-[(R)-1-(4-methoxy-benzyloxymethyl)-2-(4R,5S)-2-methyl-1-oxo-4-phenyl-2,7-diaza-spiro[4.5]dec-7-yl)-2-oxo-ethyl]-2-methyl-propionamide]
EC50 [1]: 0.109 µM
EC50 [2]: 0.0005 µM

CN1C[C@@H](c2ccc(F)cc2)[C@@]2(CCCN(C(=O)[C@@H](COCc3ccccc3)NC(=O)C(C)(C)N)C2)C1=O [Example 1.2, 2-Amino-N-((2R)-3-(benzyloxy)-1-((4S,5R)-4-(4-fluorophenyl)-2-methyl-1-oxo-2,7-diazaspiro[4.5]decan-7-yl)-1-oxopropan-2-yl)-2-methylpropanamide]
EC50 [1]: 0.055 µM
EC50 [2]: 0.0001 µM

CN1CC(c2ccc(Cl)cc2)C2(CCCN(C(=O)[C@@H](COCc3ccccc3)NC(=O)C(C)(C)N)C2)C1=O (single isomer, unassigned) [Example 1.8]
EC50 [1]: 0.162 µM
EC50 [2]: 0.0003 µM

COc1ccc(C2CN(C)C(=O)C23CCCN(C(=O)[C@@H](COCc2ccccc2)NC(=O)C(C)(C)N)C3)cc1 (stereo partly drawn) [Example 1.74, 2-amino-N-((2R)-3-(benzyloxy)-1-(4-(4-methoxyphenyl)-2-methyl-1-oxo-2,7-diazaspiro[4.5]decan-7-yl)-1-oxopropan-2-yl)-2-methylpropanamide]
EC50 [1]: 5.9 µM
EC50 [2]: 0.0054 µM

CN1CC(c2ccccc2)C2(CCCN(C(=O)[C@@H](COCc3ccccc3)NC(=O)C(C)(C)N)C2)C1=O (single isomer, unassigned) [Example 1.20]
EC50 [1]: 2.28 µM
EC50 [2]: 0.0016 µM

CC(C)N1CC(c2ccc(F)cc2)C2(CCCN(C(=O)[C@@H](Cc3cn(C)c4ccccc34)NC(=O)C(C)(C)N)C2)C1=O (single isomer, unassigned) [Example 1.15]
EC50 [1]: 0.128 µM
EC50 [2]: 0.0016 µM

CN1CC(c2ccccc2)C2(CCCN(C(=O)[C@@H](COCc3ccccc3)NC(=O)C(C)(C)N)C2)C1=O (single isomer, unassigned) [Example 1.21]
EC50 [1]: 1.93 µM
EC50 [2]: 0.0021 µM

CCC(N)(CC)C(=O)N[C@H](COCc1ccccc1)C(=O)N1CCC[C@@]2(C1)C(=O)N(C)C[C@H]2c1ccccc1 [Example 1.71, 2-amino-N-((R)-3-(benzyloxy)-1-((4S,5R)-2-methyl-1-oxo-4-phenyl-2,7-diazaspiro[4.5]decan-7-yl)-1-oxopropan-2-yl)-2-ethylbutanamide]
EC50 [1]: 1.14 µM
EC50 [2]: 0.0054 µM

CC(C)N1CC(c2ccccc2)C2(CCCN(C(=O)[C@@H](COCc3ccccc3)NC(=O)C(C)(C)N)C2)C1=O (single isomer, unassigned) [Example 1.5]
EC50 [1]: 0.02 µM
EC50 [2]: 0.0001 µM
